In patent publication US6949648B2, “Condensed pyrazole derivatives, process for producing the same and use thereof” (Takeda Pharmaceutical Company Limited, priority 2000, dated 2005):
Where a name gives a salt, the structure may show the parent alone.

Tests used:
IL-5 = assay: Effect on cytokine production of mice sensitized by controlled-release ovalbumin: IL-5; assay type: in vivo, BALB/c mouse; settings: Mus musculus, po; 30 mg/kg b.w. orally, 5 days a week during 9-day period; splenic cells incubated with OVA 3 days, ELISA; read-out: Suppression Rate (%) IL-5
Procedure: (§1) Effect on Cytokine Production of Mice Sensitized by Controlled-Release Ovalbumin
(§2) An osmotic pump (Alza Co., USA) containing a solution (100 μL) containing 1.0 mg of ovalbumin (OVA; albumin chicken egg grade III, Sigma Chemical) was implanted in the back of a male BALB/c mouse (Charles River) of 8 weeks old under ether anesthesia, and the mouse is sensitized by the controlled-release ovalbumin. After 11 days from implantation of the pump, a sample of spleen was removed, and a splenic cell suspension was prepared by the use of the RPMI-1640 medium (Bio Whittaker Inc., USA) containing inactivated fetal bovine serum (10% V/V; Bio Whittaker Inc., USA), 2-mercaptoethanol (50 μM), and gentamicin (20 μg/ml). A sample compound (30 mg/kg b.w.) was suspended in 0.4 ml of methylcellulose (MC), and the suspension was orally administered, 5 days a week during the 9-day period from the initiation day of sensitization to the day before the day of blood sample collection (1 Group, n=10). The splenic cell suspension was adjusted to a concentration of 5.0×10^6 cells/ml, and the resulting suspension (100 μl) was pipetted onto a 96 well U-bottomed plate, each of the wells containing a solution (100 μl/well) of 400 μg/ml OVA, and the plate was incubated at 37° C. in a 5% carbon dioxide gas incubator for 3 days. The cultured media were centrifuged at 200×g for 5 minutes, and the supernatants were collected and the production of IL-4, IL-5 and IFN-γ in each of the supernatants was determined by the ELISA method [Mouse IL-4 Bulk Kit (PerSeptive Biosystems), Mouse IL-5 Bulk Kit (PerSeptive Biosystems), and Mouse IFN-γ Bulk Kit (PerSeptive Biosystems)].

IL-4 = assay: Effect on cytokine production of mice sensitized by controlled-release ovalbumin: IL-4; assay type: in vivo, BALB/c mouse; settings: Mus musculus, po; 30 mg/kg b.w. orally, 5 days a week during 9-day period; splenic cells incubated with OVA 3 days, ELISA; read-out: Suppression Rate (%) IL-4
Procedure: as §1, §2

IFN-γ = assay: Effect on cytokine production of mice sensitized by controlled-release ovalbumin: IFN-γ; assay type: in vivo, BALB/c mouse; settings: Mus musculus, po; 30 mg/kg b.w. orally, 5 days a week during 9-day period; splenic cells incubated with OVA 3 days, ELISA; read-out: Suppression Rate (%) IFN-γ
Procedure: as §1, §2

[1] = test system: OVA-specific IgG2a (Th1 type); assay: Effect on antibody production of ovalbumin-sensitized mice: IgG2a; assay type: in vivo, BALB/c mouse; settings: Mus musculus, po, 264 h; 30 mg/kg b.w. orally, 5 days a week during 9-day period; serum 11 days after first sensitization, ELISA; read-out: Suppression Rate (%) IgG2a
Procedure: (§3) Effect on Antibody Production of Mice Sensitized by Controlled-Release Ovalbumin
(§4) A male BALB/c mouse (Charles River) of 7 weeks old was sensitized by intraabdominal administration, twice at an interval of a week, of a mixture of 10 μg/mouse of ovalbumin (OVA; albumin chicken egg grade III; Sigma Chemical) and 1 mg of aluminum hydroxide hydrate gel suspension (Alum; LSL Co. LTD.). After 11 days from the first sensitization, blood was collected from beneath eye under ether anesthesia, and the amount of OVA-specific IgE, IgG1 (Th2 type) and IgG2a (Th1 type) antibodies in the serum were determined by the ELISA method. A sample compound (30 mg/kg b.w.) was suspended in 0.4 ml of methylcellulose (MC), and the suspension was orally administered, 5 days a week during the 9-day period from the initiation day of sensitization to the day before the day of blood sample collection (1 Group, n=8 to 10).

OVA-specific IgE = assay: Effect on antibody production of ovalbumin-sensitized mice: IgE; assay type: in vivo, BALB/c mouse; settings: Mus musculus, po, 264 h; 30 mg/kg b.w. orally, 5 days a week during 9-day period; serum 11 days after first sensitization, ELISA; read-out: Suppression Rate (%) IgE
Procedure: as §3, §4

| melting point [°C] | Compound | inhibition in vivo at 30 mg/kg (IL-5) [%] | inhibition in vivo at 30 mg/kg (IL-4) [%] | inhibition in vivo at 30 mg/kg (IFN-γ) [%] | inhibition in vivo at 30 mg/kg [1] [%] | inhibition in vivo at 30 mg/kg (OVA-specific IgE) [%] |
| --- | --- | --- | --- | --- | --- | --- |
| 198 to 199 | Cc1nn(-c2ccccn2)c2nc(-c3ccccc3)cc(O)c12 [Example 1-22, 3-Methyl-6-phenyl-1-(2-pyridinyl)-1H-pyrazolo[3,4-b]pyridin-4-ol] |  |  |  | -2.1 | 14 |
| 195 to 196 | Cc1nn(-c2ccccn2)c2nc(O)cc(-c3ccccc3)c12 [Example 1-27, 3-Methyl-4-phenyl-1-(2-pyridinyl)-1H-pyrazolo[3,4-b]pyridin-6-ol] |  |  |  | 27.1 | 24.3 |
| 166 to 169 | CCOC(=O)c1cnc2c(c(C)nn2-c2ccccn2)c1O [Example 1-1, Ethyl 4-hydroxy-3-methyl-1-(2-pyridinyl)-1H-pyrazolo[3,4-b]pyridine-5-carboxylate] |  |  |  | 17.8 | 46.3 |
| 248 to 249 | Cc1nn(-c2ccccn2)c2nc(O)c3c(c12)CCCC3 [Example 1-29, 1-Methyl-3-(2-pyridinyl)-6,7,8,9-tetrahydro-3H-pyrazolo[3,4-c]isoquinolin-5-ol] |  |  |  | -22.6 | 19.1 |
| 312 to 315 | Cl.Nc1c2ccccc2nc2c1cnn2-c1ccccn1 [Example 1-67, 1-(2-Pyridinyl)-1H-pyrazolo[3,4-b]quinolin-4-ylamine hydrochloride] |  |  |  | -30.7 | 10.5 |
| 98 to 101 | Cc1nn(-c2ccccn2)c2nc3ccccc3c(N(C)C)c12 [Example 1-38, N,N-Dimethyl-N-[3-methyl-1-(2-pyridinyl)-1H-pyrazolo[3,4-b]quinolin-4-yl]amine] |  |  |  | -122 | 36.1 |
| 208 to 209 | Cc1nn(-c2ccccn2)c2nc(O)c(Cc3ccccc3)c(C)c12 [Example 1-25, 5-Benzyl-3,4-dimethyl-1-(2-pyridinyl)-1H-pyrazolo[3,4-b]pyridin-6-ol] |  |  |  | 16.5 | 33.9 |
| 195 to 197 | Cc1cccnc1-n1nc(C)c2c(=O)c3c(C)cccc3[nH]c21 [Example 2-125, 3,5-Dimethyl-1-(3-methyl-2-pyridinyl)-1,9-dihydro-4H-pyrazolo[3,4-b]quinolin-4-one] |  |  |  |  |  |
| 210 to 213 | Cc1nn(-c2ccccn2)c2nc3ccccc3c(N)c12 [Example 1-35, 3-Methyl-1-(2-pyridinyl)-1H-pyrazolo[3,4-b]quinolin-4-ylamine] |  |  |  |  |  |
| 165 to 168 | Cc1ccc(-n2nc(C)c3c(Cl)c4cccc(C)c4nc32)nc1 [Example 2-131, 4-Chloro-3,8-dimethyl-1-(5-methyl-2-pyridinyl)-1H-pyrazolo[3,4-b]quinoline] |  |  |  |  |  |
| 233 to 235 | Cc1nn(-c2ccccn2)c2nc3ccc(Cl)cc3c(Cl)c12 [Example 2-70, 4,6-Dichloro-3-methyl-1-(2-pyridinyl)-1H-pyrazolo[3,4-b]quinoline] |  |  |  |  |  |
| 185 to 187 | Cc1nn(-c2ccccn2)c2nc3ccc(F)cc3c(Cl)c12 [Example 2-80, 4-Chloro-6-fluoro-3-methyl-1-(2-pyridinyl)-1H-pyrazolo[3,4-b]quinoline] |  |  |  |  |  |

Second part, the compound before the results:

| Compound | melting point [°C] | inhibition in vivo at 30 mg/kg (IL-5) [%] | inhibition in vivo at 30 mg/kg (IL-4) [%] | inhibition in vivo at 30 mg/kg (IFN-γ) [%] | inhibition in vivo at 30 mg/kg [1] [%] | inhibition in vivo at 30 mg/kg (OVA-specific IgE) [%] |
| --- | --- | --- | --- | --- | --- | --- |
| Cc1nn(-c2ncccn2)c2nc3ccccc3c(N)c12 [Example 1-65, 3-Methyl-1-(2-pyrimidinyl)-1H-pyrazolo[3,4-b]quinolin-4-ylamine hydrochloride] |  | 16.5 | 8.1 | -15.7 |  |  |
| Cc1nn(-c2ccccn2)c2[nH]c3ccc(Cl)cc3c(=O)c12 [Example 1-51, 6-Chloro-3-methyl-1-(2-pyridinyl)-1,9-dihydro-4H-pyrazolo[3,4-b]quinolin-4-one] |  | 53.7 | 31.9 | -11.2 |  |  |
| Cc1ccc(-n2nc(C)c3c(=O)c4ccccc4[nH]c32)nc1 [Example 1-55, 3-Methyl-1-(5-methyl-2-pyridinyl)-1,9-dihydro-4H-pyrazolo[3,4-b]quinolin-4-one hydrochloride] |  |  |  |  | 13.7 | 11.7 |
| Cc1cccc2c(N)c3c(C)nn(-c4ccc5ccccc5n4)c3nc12 [Example 1-66, 3,8-Dimethyl-1-(2-quinolinyl)-1H-pyrazolo[3,4-b]quinolin-4-ylamine] |  | 34.3 | 27.1 | 50 |  |  |
| Cc1nn(-c2ccccn2)c2ncc(C(=O)O)c(O)c12 [Example 1-2, 4-Hydroxy-3-methyl-1-(2-pyridinyl)-1H-pyrazolo[3,4-b]pyridine-5-carboxylic acid] |  |  |  |  | -67.9 | 29.2 |
| Cc1ccc(-n2nc(C)c3c(N)c4ccccc4nc32)nc1 [Example 1-54, 3-Methyl-1-(5-methyl-2-pyridinyl)-1H-pyrazolo[3,4-b]quinolin-4-ylamine] |  |  |  |  | -148 | 17.6 |
| CNc1c2ccccc2nc2c1c(C)nn2-c1ccccn1.Cl [Example 1-37, N-Methyl-N-[3-methyl-1-(2-pyridinyl)-1H-pyrazolo[3,4-b]quinolin-4-yl]amine hydrochloride] | 229 to 232 |  |  |  | 9.6 | 29.6 |
| Cc1nn(-c2ccccn2)c2[nH]c3ccccc3c(=S)c12 [Example 1-42, 3-Methyl-1-(2-pyridinyl)-1,9-dihydro-4H-pyrazolo[3,4-b]quinolin-4-thione] | 252 to 253 |  |  |  | 14.3 | 24 |
| Cc1nn(-c2ccccn2)c2nc3ccc(F)cc3c(Cl)c12 [Example 1-52, 4-Chloro-6-fluoro-3-methyl-1-(2-pyridinyl)-1H-pyrazolo[3,4-b]quinoline] |  |  |  |  | 39.9 | 41.1 |
| Cc1nn(Cc2ccccn2)c2nc3ccccc3c(N)c12 [Example 1-68, 3-Methyl-1-(2-pyridinylmethyl)-1H-pyrazolo[3,4-b]quinolin-4-ylamine] |  |  |  |  | 31.7 | 31.6 |
| Cc1nn(-c2ccccn2)c2[nH]c3ccc(F)cc3c(=O)c12 [Example 1-53, 6-Fluoro-3-methyl-1-(2-pyridinyl)-1,9-dihydro-4H-pyrazolo[3,4-b]quinolin-4-one] |  |  |  |  | 36.1 | 8 |
| Cc1nn(-c2cccnc2)c2nc3ccccc3c(N)c12 [Example 1-63, 3-Methyl-1-(3-pyridinyl)-1H-pyrazolo[3,4-b]quinolin-4-ylamine dihydrochloride] |  |  |  |  | -5.8 | 25.2 |
| Cc1nn(-c2ccccn2)c2nccc(O)c12 [Example 1-3, 3-Methyl-1-(2-pyridinyl)-1H-pyrazolo[3,4-b]pyridin-4-ol] |  |  |  |  | -39.5 | 19 |
| Cc1nn(-c2ccccn2)c2nc(Cc3ccccc3)cc(O)c12 [Example 1-21, 6-Benzyl-3-methyl-1-(2-pyridinyl)-1H-pyrazolo[3,4-b]pyridin-4-ol] | 168 to 169 |  |  |  |  |  |
| Fc1cc2nc3c(cnn3-c3ccccn3)c(Cl)c2cc1F [Example 2-198, 4-Chloro-6,7-difluoro-1-(2-pyridinyl)-1H-pyrazolo[3,4-b]quinoline] | 167 to 168 |  |  |  |  |  |
